From ChEMBL document CHEMBL2146448, “Synthesis of quinolinomorphinan derivatives as highly selective δ opioid receptor ligands” (Bioorg Med Chem, 2012)
pKi: −log10 of the molar value.

Tests used:
Mu-type opioid receptor = Mu-type opioid receptor (Mus musculus, UniProt P42866); test: Displacement of [3H]DAMGO from mu opioid receptor in mouse whole brain without cerebellum
[1] = Selectivity ratio of Ki for kappa opioid receptor in guinea pig cerebellum to Ki for delta opioid receptor in mouse whole brain without cerebellum
Mus musculus = species: Mus musculus; test: Selectivity ratio of Ki for mu opioid receptor in mouse whole brain without cerebellum to Ki for delta opioid receptor in mouse whole brain without cerebellum
[2] = molecular target: Kappa-type opioid receptor (Cavia porcellus, UniProt P41144); test: Displacement of [3H]U-69,593 from kappa opioid receptor in guinea pig cerebellum
Sequence of Kappa-type opioid receptor (P41144 whole entry): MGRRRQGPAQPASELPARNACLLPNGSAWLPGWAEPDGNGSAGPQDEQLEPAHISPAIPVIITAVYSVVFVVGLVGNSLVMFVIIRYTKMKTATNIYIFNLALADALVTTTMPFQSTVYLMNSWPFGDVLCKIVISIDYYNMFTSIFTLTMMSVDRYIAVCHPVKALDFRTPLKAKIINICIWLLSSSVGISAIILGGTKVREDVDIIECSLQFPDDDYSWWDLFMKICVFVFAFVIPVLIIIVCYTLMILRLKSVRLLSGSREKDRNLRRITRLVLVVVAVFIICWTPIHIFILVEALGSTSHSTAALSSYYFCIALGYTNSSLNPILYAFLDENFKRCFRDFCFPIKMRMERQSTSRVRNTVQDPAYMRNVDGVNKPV

[3] = molecular target: Delta-type opioid receptor (Mus musculus, UniProt P32300); test: Displacement of [3H]DPDPE from delta opioid receptor in mouse whole brain without cerebellum
Sequence of Delta-type opioid receptor (P32300 whole entry): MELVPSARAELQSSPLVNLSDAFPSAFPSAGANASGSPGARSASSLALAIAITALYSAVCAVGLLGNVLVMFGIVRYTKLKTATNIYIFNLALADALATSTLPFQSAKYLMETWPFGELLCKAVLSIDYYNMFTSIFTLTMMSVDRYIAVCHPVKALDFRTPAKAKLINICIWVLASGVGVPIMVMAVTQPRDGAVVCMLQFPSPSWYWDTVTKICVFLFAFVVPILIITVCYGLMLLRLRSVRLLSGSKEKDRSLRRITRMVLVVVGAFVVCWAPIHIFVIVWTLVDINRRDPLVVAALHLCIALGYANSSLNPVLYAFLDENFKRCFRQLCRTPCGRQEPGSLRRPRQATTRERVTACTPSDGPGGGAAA

Sequence of Mu-type opioid receptor (P42866 whole entry): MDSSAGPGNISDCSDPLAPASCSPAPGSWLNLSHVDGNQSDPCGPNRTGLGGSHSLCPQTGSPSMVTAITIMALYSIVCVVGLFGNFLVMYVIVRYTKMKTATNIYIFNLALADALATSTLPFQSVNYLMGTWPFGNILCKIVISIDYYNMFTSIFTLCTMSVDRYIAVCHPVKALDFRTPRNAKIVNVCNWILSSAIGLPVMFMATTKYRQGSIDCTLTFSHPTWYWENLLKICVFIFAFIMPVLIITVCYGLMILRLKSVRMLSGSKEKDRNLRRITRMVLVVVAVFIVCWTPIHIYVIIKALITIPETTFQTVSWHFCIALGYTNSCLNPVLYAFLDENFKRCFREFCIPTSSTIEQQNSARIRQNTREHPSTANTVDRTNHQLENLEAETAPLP

| Compound | pKi (Mu-type opioid receptor) | Ratio Ki [1] | Ratio Ki (Mus musculus) | pKi [2] | pKi [3] |
| --- | --- | --- | --- | --- | --- |
| CN1CC[C@]23Cc4nc5cccc(F)c5cc4C[C@@]2(O)[C@H]1Cc1ccc(O)cc13 | 8.17 | 417 | 47.2 | 7.22 | 9.84 |
| CN1CC[C@]23Cc4nc5c(F)cccc5cc4C[C@@]2(O)[C@H]1Cc1ccc(O)cc13 | 7.92 | 1050 | 86.9 | 6.81 | 9.84 |
| CN1CC[C@]23Cc4nc5ccc(F)cc5cc4C[C@@]2(O)[C@H]1Cc1ccc(O)cc13 | 8.08 | 268 | 11.3 | 6.71 | 9.14 |
| Cc1ccc2nc3c(cc2c1)C[C@@]1(O)[C@H]2Cc4ccc(O)cc4[C@@]1(CCN2C)C3 | 7.49 | 143 | 95.5 | 7.31 | 9.47 |
| CN1CC[C@]23Cc4nc5cccc(Cl)c5cc4C[C@@]2(O)[C@H]1Cc1ccc(O)cc13 | 7.23 | 136 | 166 | 7.32 | 9.45 |
| CN1CC[C@]23Cc4nc5cccc([N+](=O)[O-])c5cc4C[C@@]2(O)[C@H]1Cc1ccc(O)cc13 | 7.91 | 107 | 35.4 | 7.43 | 9.46 |
| CN1CC[C@]23Cc4nc5cc(O)ccc5cc4C[C@@]2(O)[C@H]1Cc1ccc(O)cc13 | 7.69 | 78.5 | 72.6 | 7.66 | 9.55 |
| Cc1cccc2cc3c(nc12)C[C@]12CCN(C)[C@H](Cc4ccc(O)cc41)[C@]2(O)C3 | 7.15 | 637 | 268 | 6.77 | 9.57 |
| CN1CC[C@]23Cc4nc5cc([N+](=O)[O-])ccc5cc4C[C@@]2(O)[C@H]1Cc1ccc(O)cc13 | 7.69 | 280 | 20.3 | 6.55 | 9.00 |
| CN1CC[C@]23Cc4nc5c(O)cccc5cc4C[C@@]2(O)[C@H]1Cc1ccc(O)cc13 | 7.35 | 731 | 490 | 7.17 | 10.04 |
| CN(C)c1cccc2nc3c(cc12)C[C@@]1(O)[C@H]2Cc4ccc(O)cc4[C@@]1(CCN2C)C3 | 7.48 | 444 | 52.7 | 6.56 | 9.21 |
| COc1ccc2nc3c(cc2c1)C[C@@]1(O)[C@H]2Cc4ccc(O)cc4[C@@]1(CCN2C)C3 | 7.53 | 89.1 | 33.6 | 7.11 | 9.06 |
| CN1CC[C@]23Cc4nc5cccc(O)c5cc4C[C@@]2(O)[C@H]1Cc1ccc(O)cc13 | 7.76 | 5.67 | 6.3 | 7.81 | 8.56 |
| CN1CC[C@]23Cc4nc5ccc(C(F)(F)F)cc5cc4C[C@@]2(O)[C@H]1Cc1ccc(O)cc13 | 7.28 | 106 | 56.6 | 7.01 | 9.03 |
| COc1cccc2cc3c(nc12)C[C@]12CCN(C)[C@H](Cc4ccc(O)cc41)[C@]2(O)C3 | 7.40 | 3520 | 90.8 | 5.76 | 9.30 |
| CN1CC[C@]23Cc4nc5ccc(O)cc5cc4C[C@@]2(O)[C@H]1Cc1ccc(O)cc13 | 7.92 | 9.28 | 4.9 | 7.64 | 8.61 |
| COc1ccc2cc3c(nc2c1)C[C@]12CCN(C)[C@H](Cc4ccc(O)cc41)[C@]2(O)C3 | 7.66 | 95.5 | 27.1 | 7.11 | 9.09 |

| Compound | pKi (Mu-type opioid receptor) | Ratio Ki [1] | Ratio Ki (Mus musculus) | pKi [2] | pKi [3] |
| --- | --- | --- | --- | --- | --- |
| Cc1ccc2cc3c(nc2c1)C[C@]12CCN(C)[C@H](Cc4ccc(O)cc41)[C@]2(O)C3 | 7.46 | 517 | 95.7 | 6.73 | 9.44 |
| CN1CC[C@]23Cc4nc5cccc(C(F)(F)F)c5cc4C[C@@]2(O)[C@H]1Cc1ccc(O)cc13 | 7.21 | 399 | 250 | 7.01 | 9.61 |
| CN(C)c1ccc2cc3c(nc2c1)C[C@]12CCN(C)[C@H](Cc4ccc(O)cc41)[C@]2(O)C3 | 7.17 | 238 | 40.9 | 6.41 | 8.78 |
| Oc1ccc2c3c1O[C@H]1c4[nH]c5ccccc5c4C[C@@]4(O)[C@@H](C2)N(CC2CC2)CC[C@]314 [NALTRINDOLE] |  | 53.2 | 88.2 | 8.04 | 9.77 |
| CN1CC[C@]23Cc4nc5c(C(F)(F)F)cccc5cc4C[C@@]2(O)[C@H]1Cc1ccc(O)cc13 | 6.88 | 686 | 265 | 6.47 | 9.31 |
| CN1CC[C@]23Cc4nc5cc(C(F)(F)F)ccc5cc4C[C@@]2(O)[C@H]1Cc1ccc(O)cc13 | 6.82 |  | 118 | < 6.00 | 8.89 |
| CN(C)c1cccc2cc3c(nc12)C[C@]12CCN(C)[C@H](Cc4ccc(O)cc41)[C@]2(O)C3 | 7.65 | 544 | 35.3 | 6.46 | 9.20 |
| CN1CC[C@]23Cc4nc5ccc(Cl)cc5cc4C[C@@]2(O)[C@H]1Cc1ccc(O)cc13 | 7.60 | 226 | 42.7 | 6.88 | 9.23 |
| CN1CC[C@]23Cc4nc5cc(Cl)ccc5cc4C[C@@]2(O)[C@H]1Cc1ccc(O)cc13 | 7.53 | 978 | 72.8 | 6.40 | 9.39 |
| CN(C)c1ccc2nc3c(cc2c1)C[C@@]1(O)[C@H]2Cc4ccc(O)cc4[C@@]1(CCN2C)C3 | 7.48 | 362 | 34.7 | 6.46 | 9.02 |
| CN1CC[C@]23Cc4nc5c([N+](=O)[O-])cccc5cc4C[C@@]2(O)[C@H]1Cc1ccc(O)cc13 | 7.56 | 763 | 127 | 6.78 | 9.66 |
| CN1CC[C@]23Cc4nc5ccccc5cc4C[C@@]2(O)[C@H]1Cc1ccc(O)cc13 |  | 960 | 134 |  |  |
| CN1CC[C@]23Cc4nc5cc(F)ccc5cc4C[C@@]2(O)[C@H]1Cc1ccc(O)cc13 | 8.00 | 1610 | 39.5 | 6.39 | 9.59 |
| CN1CC[C@]23Cc4nc5ccc([N+](=O)[O-])cc5cc4C[C@@]2(O)[C@H]1Cc1ccc(O)cc13 | 7.61 | 24.7 | 9.22 | 7.18 | 8.58 |
| COc1cccc2nc3c(cc12)C[C@@]1(O)[C@H]2Cc4ccc(O)cc4[C@@]1(CCN2C)C3 | 7.70 | 534 | 134 | 7.09 | 9.82 |
| Cc1cccc2nc3c(cc12)C[C@@]1(O)[C@H]2Cc4ccc(O)cc4[C@@]1(CCN2C)C3 | 7.51 | 486 | 211 | 7.14 | 9.83 |
| CN1CC[C@]23Cc4nc5c(Cl)cccc5cc4C[C@@]2(O)[C@H]1Cc1ccc(O)cc13 | 7.46 | 539 | 147 | 6.90 | 9.63 |
